From patent US20260337228A1, “COMPOSITION AND METHOD FOR TREATING NEONATAL HYPOXIC-ISCHEMIC ENCEPHALOPATHY” (SUZHOU GLENKOL PHARMA TECHNOLOGY CO., LTD., priority 2023, published 2026)

Experiments:
[1] = system: cerebral cortical neural cells; assay: Lactate dehydrogenase (LDH) cytotoxicity assay after oxygen-glucose deprivation; type: cell-based, neonatal rat; details: 2 mM NaP, positive control; 24 hours after injury; vs untreated oxygen-glucose deprivation group, p<0.05
Protocol: Culture of cerebral cortical neural cells: The brains of neonatal rats were dissected, the meninges removed, and the cerebral cortex isolated. The cortical tissues were digested with papain, single cells collected, and plated onto lysine-treated coverslips and cultured in Neurobasal™ serum-free medium. To mimic hypoxic-ischemic encephalopathy injury in vitro, the Neurobasal medium was replaced with DMEM medium at 7 days in vitro (DIV7), and cells were cultured under 21% O2/5% CO2 for 2.5 hours to serve as the control group, or Neurobasal medium replaced with glucose-free DMEM medium and cells cultured under 0% O2/5% CO2 for 2.5 hours to serve as the oxygen-glucose deprivation treatment group. After treatment, both groups were returned to Neurobasal medium and cultured normally under 21% O2/5% CO2 for 24 hours. […]
Lactate dehydrogenase (LDH) kit cytotoxicity assay: After 24 hours of normal culture, collect the cell culture supernatant from each group, add the LDH assay working solution, mix thoroughly, and incubate at room temperature in the dark for 30 minutes. Then, measure the absorbance at 490 nm and calculate the LDH release level, which indicates cytotoxicity. […]

[2] = system: cerebral cortical neural cells; assay: MTT assay for cell viability after oxygen-glucose deprivation; type: cell-based, neonatal rat; details: 2 mM NaP, positive control; 24 hours after injury; vs untreated oxygen-glucose deprivation group, p<0.05
Protocol: Culture of cerebral cortical neural cells: The brains of neonatal rats were dissected, the meninges removed, and the cerebral cortex isolated. The cortical tissues were digested with papain, single cells collected, and plated onto lysine-treated coverslips and cultured in Neurobasal™ serum-free medium. To mimic hypoxic-ischemic encephalopathy injury in vitro, the Neurobasal medium was replaced with DMEM medium at 7 days in vitro (DIV7), and cells were cultured under 21% O2/5% CO2 for 2.5 hours to serve as the control group, or Neurobasal medium replaced with glucose-free DMEM medium and cells cultured under 0% O2/5% CO2 for 2.5 hours to serve as the oxygen-glucose deprivation treatment group. After treatment, both groups were returned to Neurobasal medium and cultured normally under 21% O2/5% CO2 for 24 hours.
S1 Pretreatment: At the start of the oxygen-glucose deprivation treatment, cells were simultaneously treated with S1 (final concentrations of 0.01 μM, 0.1 μM, 1 μM, or 10 μM), or with the scrambled peptide Tat-NRRRNSKLQHKKY (SEQ ID NO: 10), or with NaP (Davunetide) as a control.
MTT assay for cell viability: After 24 hours of normal culture, MTT solution was added to each group and cultured for an additional 4 hours. […] Then, measure the absorbance at 490 nm and calculate the MTT formation level, which indicates cell viability. […]

CC[C@H](C)[C@H](NC(=O)[C@H](CO)NC(=O)[C@@H](NC(=O)[C@@H]1CCCN1C(=O)[C@H](C)NC(=O)[C@@H](N)CC(N)=O)C(C)C)C(=O)N1CCC[C@H]1C(=O)N[C@@H](CCC(N)=O)C(=O)O [NaP, Davunetide]
LDH release levels [1]: significantly reduced LDH release levels | MTT formation levels [2]: significantly increased MTT formation levels
